For 35 compounds, IC50 results are on record in patent publication US9359308B2, “Pyrazine kinase inhibitors” (Portola Pharmaceuticals, Inc., priority 2011, dated 2016).

The target in the experiment is T1, full length active recombinant SYK enzyme (Homo sapiens, UniProt P43405).
T1 construct: full length active recombinant SYK enzyme (Millipore, Calif.); purchased Millipore
Briefly: Inhibition of Syk tyrosine phosphorylation activity (LANCE TR-FRET kinase assay). Format: biochemical. The conditions noted are these: activity in the Syk assays, class symbols. The method, boiled down:
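IC50 was derived by non-linear regression of TR-FRET signal (Eu-W1024-PY100 donor, streptavidin-APC acceptor) read 1 h after EDTA quench. The kinase step ran 1 h at room temperature with 1 nM full-length SYK, 550 nM biotinylated DEEDYESP substrate and 100 μM ATP in Tris pH 7.5/MgCl2/DTT at 3% final DMSO.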

For the compound `NC(=O)c1ncc(N[C@@H]2CCCC[C@@H]2N)nc1Nc1ccc2nccn2c1` [Example 425, 5-(((1R,2S)-2-aminocyclohexyl)amino)-3-(imidazo[1,2-a]pyridin-6-ylamino)pyrazine-2-carboxamide], the concentration for half-maximal inhibition (IC50) (as a rule, the concentration at which inhibition is half-maximal) is 1 to 10 nM.
Turning to `CC[C@@H](Nc1cnc(C(N)=O)c(Nc2cc(C(=O)N(C)C)ns2)n1)C(N)=O` [Example 249, (R)-5-(6-(1-amino-1-oxobutan-2-ylamino)-3-carbamoylpyrazin-2-ylamino)-N,N-dimethylisothiazole-3-carboxamide], the half-inhibitory concentration (IC50) was 100 to 1000 nM.
As to `CN(C)C(=O)c1ccc(Nc2nc(N[C@@H]3CCCC[C@@H]3N)cnc2C(N)=O)cc1Cl` [Example 279, 5-((1R,2S)-2-aminocyclohexylamino)-3-(3-chloro-4-(dimethylcarbamoyl)phenylamino)pyrazine-2-carboxamide], the half-maximal inhibitory concentration (IC50) lay within 10 to 100 nM.
With `CN(C)c1nc2ccc(Nc3nc(N[C@@H]4CCCC(F)(F)[C@@H]4N)cnc3C(N)=O)cc2o1` [Example 336, 5-((1R,2R)-2-amino-3,3-difluorocyclohexylamino)-3-(2-(dimethylamino)benzo[d]oxazol-6-ylamino)pyrazine-2-carboxamide], the IC50 was 1 to 10 nM.
In the case of `NC(=O)c1ncc(N[C@H]2CC[C@@H](N)CC2)nc1Nc1ccc2ncccc2c1` [Example 187, 5-((1s,4s)-4-aminocyclohexylamino)-3-(quinolin-6-ylamino)pyrazine-2-carboxamide] it was 1 to 10 nM; in that of `CC(C)C[C@@H](Nc1cnc(C(N)=O)c(Nc2ccc(C(F)(F)F)nc2)n1)C(N)=O` [Example 85, (R)-5-(1-amino-4-methyl-1-oxopentan-2-ylamino)-3-(6-(trifluoromethyl)pyridin-3-ylamino)pyrazine-2-carboxamide], 10 to 100 nM; in that of `CNC1(CNc2cnc(C(N)=O)c(Nc3ccc4ncccc4c3)n2)CC1` [Example 129, 5-(((1-(methylamino)cyclopropyl)methyl)amino)-3-(quinolin-6-ylamino)pyrazine-2-carboxamide], 1 to 10 nM.
Consider `CC(C)(C)C[C@@H](Nc1cnc(C(N)=O)c(Nc2snc3sccc23)n1)C(N)=O` [Example 261, (R)-5-(1-amino-4,4-dimethyl-1-oxopentan-2-ylamino)-3-(thieno[2,3-c]isothiazol-3-ylamino)pyrazine-2-carboxamide], for which the IC50 is 1 to 10 nM.
Take `NC(=O)c1ncc(N[C@@H]2CCCC(F)(F)[C@@H]2N)nc1Nc1ccc2ccncc2c1` [Example 385, 5-((1R,2R)-2-amino-3,3-difluorocyclohexylamino)-3-(isoquinolin-7-ylamino)pyrazine-2-carboxamide]: the IC50 lay in the range of 1 to 10 nM.
`NC(=O)c1ncc(N[C@@H]2CCCC[C@@H]2N)nc1Nc1cnc2cccnc2c1` [Example 419, 3-((1,5-naphthyridin-3-yl)amino)-5-(((1R,2S)-2-aminocyclohexyl)amino)pyrazine-2-carboxamide]: the 50% inhibitory concentration (IC50) fell in the range of 1 to 10 nM.
Turning to `NC(=O)c1ncc(N[C@@H]2CCNC2)nc1Nc1cnc2ccncc2c1` [Example 117, (R)-3-((1,6-naphthyridin-3-yl)amino)-5-(pyrrolidin-3-ylamino)pyrazine-2-carboxamide], the half-maximal inhibitory concentration (IC50) lay in the range of 10 to 100 nM.
Take `CC(C)C[C@@H](Nc1cnc(C(N)=O)c(Nc2ccn(C)n2)n1)C(N)=O` [Example 180, (R)-5-(1-amino-4-methyl-1-oxopentan-2-ylamino)-3-(1-methyl-1H-pyrazol-3-ylamino)pyrazine-2-carboxamide]: the IC50 was above 1000 nM.
For `NC(=O)c1ncc(N[C@H]2CC[C@@H](N)CC2)nc1Nc1cccc(-c2ncccn2)c1` [Example 184, 5-((1s,4s)-4-aminocyclohexylamino)-3-(3-(pyrimidin-2-yl)phenylamino)pyrazine-2-carboxamide], the concentration for half-maximal inhibition (IC50) is 1 to 10 nM.
For the compound `CC[C@@H](Nc1cnc(C(N)=O)c(Nc2snc(C)c2Cl)n1)C(N)=O` [Example 135, (R)-5-((1-amino-1-oxobutan-2-yl)amino)-3-((4-chloro-3-methylisothiazol-5-yl)amino)pyrazine-2-carboxamide], the IC50 is 10 to 100 nM.
`NC(=O)c1ncc(N[C@@H]2CCCC(F)(F)[C@@H]2N)nc1Nc1ccccc1` [Example 17, 5-((1R,2R)-2-amino-3,3-difluorocyclohexylamino)-3-(phenylamino)pyrazine-2-carboxamide]: the half-maximal inhibitory concentration (IC50) lay within 10 to 100 nM.
For `CCc1ccc(Nc2nc(N[C@H](CC(C)C)C(N)=O)cnc2C(N)=O)cn1` [Example 347, (R)-5-(1-amino-4-methyl-1-oxopentan-2-ylamino)-3-(6-ethylpyridin-3-ylamino)pyrazine-2-carboxamide], the IC50 was in the range of 1 to 10 nM.
For the compound `CC[C@@H](Nc1cnc(C(N)=O)c(Nc2cnc3cccnc3c2)n1)C(N)=O` [Example 383, (R)-3-(1,5-naphthyridin-3-ylamino)-5-(1-amino-1-oxobutan-2-ylamino)pyrazine-2-carboxamide], the IC50 is 10 to 100 nM.
In the case of `Cc1cccc(Nc2nc(N[C@H](CC(C)C)C(N)=O)cnc2C(N)=O)c1` [Example 63, (R)-5-(1-amino-4-methyl-1-oxopentan-2-ylamino)-3-(m-tolylamino)pyrazine-2-carboxamide], the IC50 fell in the range of 10 to 100 nM.
In the case of `CC(C)[C@@H](Nc1cnc(C(N)=O)c(Nc2cnc3c(F)cccc3c2)n1)C(N)=O` [Example 204, (R)-5-(1-amino-3-methyl-1-oxobutan-2-ylamino)-3-(8-fluoroquinolin-3-ylamino)pyrazine-2-carboxamide], the 50% inhibitory concentration (IC50) was in the range of 1 to 10 nM.
In the case of `CC(C)C[C@@H](Nc1cnc(C(N)=O)c(Nc2ccnc(C3CC3)c2)n1)C(N)=O` [Example 344, (R)-5-(1-amino-4-methyl-1-oxopentan-2-ylamino)-3-(2-cyclopropylpyridin-4-ylamino)pyrazine-2-carboxamide] it was below 1 nM; in that of `CN1C(=O)CCc2cc(Nc3nc(N[C@@H]4CCCC[C@@H]4N)cnc3C(N)=O)ccc21` [Example 90, 5-((1R,2S)-2-aminocyclohexylamino)-3-(1-methyl-2-oxo-1,2,3,4-tetrahydroquinolin-6-ylamino)pyrazine-2-carboxamide], 1 to 10 nM; in that of `NC(=O)c1ncc(N[C@@H]2CCCC[C@@H]2N)nc1Nc1ccc2[nH]ncc2c1` (racemic) [Example 54, cis-3-(1H-indazol-5-ylamino)-5-(2-aminocyclohexylamino)pyrazine-2-carboxamide], below 1 nM.
Take `CCc1cc(Nc2nc(N[C@H](CC)C(N)=O)cnc2C(N)=O)sn1` [Example 221, (R)-5-(1-amino-1-oxobutan-2-ylamino)-3-(3-ethylisothiazol-5-ylamino)pyrazine-2-carboxamide]: the IC50 is 1 to 10 nM.
Take `NC(=O)c1ncc(N[C@H]2CCNC2)nc1Nc1ccc2ncccc2c1` [Example 108, (S)-5-(pyrrolidin-3-ylamino)-3-(quinolin-6-ylamino)pyrazine-2-carboxamide]: the IC50 lay within 10 to 100 nM.
Turning to `CN1Cc2cc(Nc3nc(N[C@@H]4CCCC[C@@H]4N)cnc3C(N)=O)ccc2C1=O` [Example 339, 5-((1R,2S)-2-aminocyclohexylamino)-3-(2-methyl-1-oxoisoindolin-5-ylamino)pyrazine-2-carboxamide], the half-inhibitory concentration (IC50) was below 1 nM.
On to `COc1ccc(Nc2nc(N[C@@H]3CCCC[C@@H]3N)cnc2C(N)=O)cc1OC` [Example 142, 5-((1R,2S)-2-aminocyclohexylamino)-3-(3,4-dimethoxyphenylamino)pyrazine-2-carboxamide], for which the half-maximal inhibitory concentration (IC50) lay within 1 to 10 nM.
In the case of `NC(=O)c1ncc(N[C@@H]2CCCC(F)(F)[C@@H]2N)nc1Nc1cccc(-c2ncccn2)c1` [Example 16, 5-((1R,2R)-2-amino-3,3-difluorocyclohexylamino)-3-(3-(pyrimidin-2-yl)phenylamino)pyrazine-2-carboxamide] it was 100 to 1000 nM; in that of `CC[C@@H](Nc1cnc(C(N)=O)c(Nc2ccnc(OC3CCC3)c2)n1)C(N)=O` [Example 354, (R)-5-(1-amino-1-oxobutan-2-ylamino)-3-(2-cyclobutoxypyridin-4-ylamino)pyrazine-2-carboxamide], 1 to 10 nM; in that of `CC[C@@H](Nc1cnc(C(N)=O)c(Nc2ccc3nccnc3c2)n1)C(N)=O` [Example 369, (R)-5-(1-amino-1-oxobutan-2-ylamino)-3-(quinoxalin-6-ylamino)pyrazine-2-carboxamide], 1 to 10 nM.
On to `NC(=O)c1ncc(NC[C@@H](N)CC(F)F)nc1Nc1cccc(-c2ncccn2)c1` [Example 176, (S)-5-(2-amino-4,4-difluorobutylamino)-3-(3-(pyrimidin-2-yl)phenylamino)pyrazine-2-carboxamide], for which the IC50 is 10 to 100 nM.
Consider `CC(=O)N1CC[C@@H](Nc2cnc(C(N)=O)c(Nc3ccc4ncccc4c3)n2)C1` [Example 111, (R)-5-((1-acetylpyrrolidin-3-yl)amino)-3-(quinolin-6-ylamino)pyrazine-2-carboxamide], for which the concentration for half-maximal inhibition (IC50) is above 1000 nM.
Take `CN(C)C(=O)c1cccc(Nc2nc(N[C@@H]3CCCC[C@@H]3N)cnc2C(N)=O)c1` [Example 283, 5-((1R,2S)-2-aminocyclohexylamino)-3-(3-(dimethylcarbamoyl)phenylamino)pyrazine-2-carboxamide]: the half-inhibitory concentration (IC50) lay in the range of 10 to 100 nM.
Consider `CC(C)[C@@H](Nc1cnc(C(N)=O)c(Nc2cnc3ccncc3c2)n1)C(N)=O` [Example 194, (R)-3-(1,6-naphthyridin-3-ylamino)-5-(1-amino-3-methyl-1-oxobutan-2-ylamino)pyrazine-2-carboxamide], for which the IC50 lay within 1 to 10 nM.
In the case of `CC[C@@H](Nc1cnc(C(N)=O)c(Nc2ccc(-c3ccncc3)cc2)n1)C(N)=O` [Example 28, (R)-5-(1-amino-1-oxobutan-2-ylamino)-3-(4-(pyridin-4-yl)phenylamino)pyrazine-2-carboxamide] it was 1 to 10 nM; in that of `CC(C)(C)[C@@H](Nc1cnc(C(N)=O)c(Nc2cnc3ccccc3c2)n1)C(N)=O` [Example 191, (R)-5-(1-amino-3,3-dimethyl-1-oxobutan-2-ylamino)-3-(quinolin-3-ylamino)pyrazine-2-carboxamide], 1 to 10 nM.
